pEC50: −log10 of the molar value.

This passage reports EC50 results from patent US9656963B2 (BRISTOL-MYERS SQUIBB COMPANY, priority 2012, dated 2017).

T1 sequence (O14842 whole entry): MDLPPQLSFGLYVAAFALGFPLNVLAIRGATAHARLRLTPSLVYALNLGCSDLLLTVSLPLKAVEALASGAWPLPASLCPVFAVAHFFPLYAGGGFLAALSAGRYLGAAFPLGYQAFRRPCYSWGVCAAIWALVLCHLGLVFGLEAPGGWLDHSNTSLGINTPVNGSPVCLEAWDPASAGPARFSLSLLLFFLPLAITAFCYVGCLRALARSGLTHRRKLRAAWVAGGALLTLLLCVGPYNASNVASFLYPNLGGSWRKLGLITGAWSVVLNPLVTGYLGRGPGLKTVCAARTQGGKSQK

This assay concerns the target T1, hGPR40 (Homo sapiens, UniProt O14842).
T1 construct: 3x FLAG; expressed in transfected cells
The experiment in a line: FDSS-Based Intracellular Calcium Assay. It is filed as cell-based. The conditions noted are these: cells expressing GPR40, intracellular Ca2+ response. The protocol:
FDSS-Based Intracellular Calcium Assay
Cell lines expressing GPR40 are generated using the pDEST 3× flag gene expression system and are cultured in culture medium comprising the following components: F12 (Gibco #11765), 10% lipid deprived fetal bovine serum, 250 μg/ml zeocin and 500 μg/ml G418. To conduct the fluorescent imaging plate reader (FLIPR)-based calcium flux assay to measure intracellular Ca^2+ response, cells expressing GPR40 are plated on 384 well plates (BD Biocoat #356697) at a density of 20,000 cells/20 μL medium per well in phenol red and serum-free DMEM (Gibco #21063-029) and incubated overnight. […] Compounds are dissolved in DMSO and diluted to desired concentrations with assay buffer and added to the cells as 3x solution (20 μL per well). Run fluorescence/luminescence reader FDSS (Hamamatsu) to read intracellular Ca^2+ response.
On the technique in general: A change in cytosolic calcium serves as a functional read-out for many receptors and channels.
Turning to `O=C(O)CC1CC(C(F)(F)F)=NN1c1ccc(OCc2ccccc2)cc1` (racemic) [Example 1, 2-(1-(4-(benzyloxy)phenyl)-3-(trifluoromethyl)-4,5-dihydro-1H-pyrazol-5-yl)acetic acid], the pEC50 is 5.71. The result for `O=C(O)CC1CC(C(F)(F)F)=NN1c1ccc(OCc2ccc(Cl)cc2Cl)cc1` (racemic) [Example 2, 2-(1-(4-(2,4-dichlorobenzyloxy)phenyl)-3-(trifluoromethyl)-4,5-dihydro-1H-pyrazol-5-yl)acetic acid] reads 6.10; that for `N#CC1=NN(c2ccc(Oc3cccc(Cl)c3)cc2)C(CC(=O)O)C1` (racemic) [Example 4, 2-(1-(4-(3-chlorophenoxy)phenyl)-3-cyano-4,5-dihydro-1H-pyrazol-5-yl)acetic acid], 6.66. The result for `Cc1ccccc1Oc1ccc(N2N=C(S(C)(=O)=O)CC2CC(=O)O)cc1` (racemic) [Example 5, 2-(3-(methylsulfonyl)-1-(4-(o-tolyloxy)phenyl)-4,5-dihydro-1H-pyrazol-5-yl)acetic acid] reads 5.78; that for `Cc1ccccc1Oc1ccc(N2N=C(C(=O)N(C)C)CC2CC(=O)O)cc1` (racemic) [Example 6, 2-(3-(dimethylcarbamoyl)-1-(4-(o-tolyloxy)phenyl)-4,5-dihydro-1H-pyrazol-5-yl)acetic acid], 5.74. The result for `Cc1ccccc1Oc1ccc(N2N=C(c3nnnn3C)CC2CC(=O)O)cc1` (racemic) [Example 7, 2-(3-(1-methyl-1H-tetrazol-5-yl)-1-(4-(o-tolyloxy)phenyl)-4,5-dihydro-1H-pyrazol-5-yl)acetic acid] reads 5.49. Regarding `Cc1cc(Br)c(F)cc1Oc1ccc(N2N=C(C(F)(F)F)CC2CC(=O)O)cc1` (racemic) [Example 10, 2-(1-(4-(4-bromo-5-fluoro-2-methylphenoxy)phenyl)-3-(trifluoromethyl)-4,5-dihydro-1H-pyrazol-5-yl)acetic acid], the pEC50 is 6.64. Next, `COc1ccc(F)c(-c2cc(C)c(Oc3ccc(N4N=C(C(F)(F)F)CC4CC(=O)O)cc3)cc2F)c1` (racemic) [Example 12, 2-(1-(4-(2,2′-difluoro-5′-methoxy-5-methylbiphenyl-4-yloxy)phenyl)-3-(trifluoromethyl)-4,5-dihydro-1H-pyrazol-5-yl)acetic acid]: 6.29; `Cc1cc(Br)ccc1Oc1ccc(N2N=C(C(F)(F)F)CC2CC(=O)O)cc1` (racemic) [Example 13, 2-(1-(4-(4-bromo-2-methylphenoxy)phenyl)-3-(trifluoromethyl)-4,5-dihydro-1H-pyrazol-5-yl)acetic acid]: 6.80; `Cc1cc(Cc2ccc(N3N=C(C(F)(F)F)CC3CC(=O)O)cc2)ccc1Br` (racemic) [Example 18, 2-(1-(4-(4-bromo-3-methylbenzyl)phenyl)-3-(trifluoromethyl)-4,5-dihydro-1H-pyrazol-5-yl)acetic acid]: 6.34.

`COc1ccc(Cl)c(-c2ccc(Cc3ccc(N4N=C(C(F)(F)F)CC4CC(=O)O)cc3)cc2C)c1` (racemic) [Example 23, 2-(1-(4-((2′-chloro-5′-methoxy-2-methylbiphenyl-4-yl)methyl)phenyl)-3-(trifluoromethyl)-4,5-dihydro-1H-pyrazol-5-yl)acetic acid]: the pEC50 is 6.46.

`Cc1cc(Cc2ccc(N3N=C(C(F)(F)F)CC3CC(=O)O)cc2)ccc1-c1cc(C(F)(F)F)ccc1F` (racemic) [Example 24, 2-(1-(4-((2′-fluoro-2-methyl-5′-(trifluoromethyl)biphenyl-4-yl)methyl)phenyl)-3-(trifluoromethyl)-4,5-dihydro-1H-pyrazol-5-yl)acetic acid]: the pEC50 is 6.24. Turning to `Cc1cc(Cc2ccc(N3N=C(C(F)(F)F)CC3CC(=O)O)cc2)ccc1-c1cc(OC(F)(F)F)ccc1Cl` (racemic) [Example 25, 2-(1-(4-((2′-chloro-2-methyl-5′-(trifluoromethoxy)biphenyl-4-yl)methyl)phenyl)-3-(trifluoromethyl)-4,5-dihydro-1H-pyrazol-5-yl)acetic acid], the pEC50 is 6.55. Regarding `CC(C)c1ccccc1Oc1ccc(N2N=C(C#N)CC2CC(=O)O)cc1` (racemic) [Example 29, 2-(3-cyano-1-(4-(2-isopropylphenoxy)phenyl)-4,5-dihydro-1H-pyrazol-5-yl)acetic acid], the pEC50 is 6.37. `N#CC1=NN(c2ccc(Oc3ccccc3Br)cc2)C(CC(=O)O)C1` (racemic) [Example 30, 2-(1-(4-(2-bromophenoxy)phenyl)-3-cyano-4,5-dihydro-1H-pyrazol-5-yl)acetic acid]: the pEC50 was 6.74. As for `Cc1cc(Oc2ccc(N3N=C(C#N)CC3CC(=O)O)cc2)c(C)cc1Br` (racemic) [Example 31, 2-(1-(4-(4-bromo-2,5-dimethylphenoxy)phenyl)-3-cyano-4,5-dihydro-1H-pyrazol-5-yl)acetic acid], the negative-log EC50 (pEC50) was 6.44. Consider `COc1ccc(F)c(-c2ccc(Oc3ccc(N4N=C(C#N)CC4CC(=O)O)cc3)c(C)c2)c1` (racemic) [Example 32, 2-(3-cyano-1-(4-(2′-fluoro-5′-methoxy-3-methylbiphenyl-4-yloxy)phenyl)-4,5-dihydro-1H-pyrazol-5-yl)acetic acid], for which the negative logarithm of the EC50 (pEC50) is 6.72. For `N#CC1=NN(c2ccc(OCc3ccc(Cl)cc3Cl)cc2)C(CC(=O)O)C1` (racemic) [Example 33, 2-(3-cyano-1-(4-(2,4-dichlorobenzyloxy)phenyl)-4,5-dihydro-1H-pyrazol-5-yl)acetic acid], the pEC50 is 6.52. Next, `COc1ccc(F)c(-c2cc(C)c(Oc3ccc(N4N=C(C#N)CC4CC(=O)O)cc3)cc2C)c1` (racemic) [Example 35, 2-(3-cyano-1-(4-(2′-fluoro-5′-methoxy-2,5-dimethylbiphenyl-4-yloxy)phenyl)-4,5-dihydro-1H-pyrazol-5-yl)acetic acid]: 6.74. `COc1cccc(-c2cc(C)c(Oc3ccc(N4N=C(C#N)CC4CC(=O)O)cc3)cc2C)c1` (racemic) [Example 36, 2-(3-cyano-1-(4-(3′-methoxy-2,5-dimethylbiphenyl-4-yloxy)phenyl)-4,5-dihydro-1H-pyrazol-5-yl)acetic acid]: the pEC50 was 6.23. Next, `COc1ccc(Cc2ccc(N3N=C(C#N)CC3CC(=O)O)cc2)c(C)c1` (racemic) [Example 37, 2-(3-cyano-1-(4-(4-methoxy-2-methylbenzyl)phenyl)-4,5-dihydro-1H-pyrazol-5-yl)acetic acid]: 6.82; `COc1cccc(-c2ccc(Cc3ccc(N4N=C(C#N)CC4CC(=O)O)cc3)c(C)c2)c1` (racemic) [Example 38, 2-(3-cyano-1-(4-((3′-methoxy-3-methylbiphenyl-4-yl)methyl)phenyl)-4,5-dihydro-1H-pyrazol-5-yl)acetic acid]: 6.72; `Cc1cc(-c2cc(C#N)ccc2F)ccc1Cc1ccc(N2N=C(C#N)CC2CC(=O)O)cc1` (racemic) [Example 39, 2-(3-cyano-1-(4-((5′-cyano-2′-fluoro-3-methylbiphenyl-4-yl)methyl)phenyl)-4,5-dihydro-1H-pyrazol-5-yl)acetic acid]: 6.70. The result for `COc1ccc(Cl)c(-c2ccc(Cc3ccc(N4N=C(C#N)CC4CC(=O)O)cc3)c(C)c2)c1` (racemic) [Example 40, 2-(1-(4-((2′-chloro-5′-methoxy-3-methylbiphenyl-4-yl)methyl)phenyl)-3-cyano-4,5-dihydro-1H-pyrazol-5-yl)acetic acid] reads 6.92; that for `Cc1ccccc1Oc1ccc(N2N=C(C#N)CC2CC(=O)O)cc1` (single isomer, unassigned) [Example 3, Isomer 1, 2-(3-cyano-1-(4-(o-tolyloxy)phenyl)-4,5-dihydro-1H-pyrazol-5-yl)acetic acid], 7.43. The result for `Cc1ccccc1Oc1ccc(N2N=C(C#N)CC2CC(=O)O)cc1` (single isomer, unassigned) [Example 3, Isomer 2, 2-(3-cyano-1-(4-(o-tolyloxy)phenyl)-4,5-dihydro-1H-pyrazol-5-yl)acetic acid] reads 6.25; that for `COc1ccc(F)c(-c2ccc(Oc3ccc(N4N=C(c5ncco5)CC4CC(=O)O)cc3)c(C)c2)c1` (single isomer, unassigned) [Example 8, Isomer 1, 2-(1-(4-(2′-fluoro-5′-methoxy-3-methylbiphenyl-4-yloxy)phenyl)-3-(oxazol-2-yl)-4,5-dihydro-1H-pyrazol-5-yl)acetic acid], 6.04; that for `COc1ccc(F)c(-c2ccc(Oc3ccc(N4N=C(c5ncco5)CC4CC(=O)O)cc3)c(C)c2)c1` (single isomer, unassigned) [Example 8, Isomer 2, 2-(1-(4-(2′-fluoro-5′-methoxy-3-methylbiphenyl-4-yloxy)phenyl)-3-(oxazol-2-yl)-4,5-dihydro-1H-pyrazol-5-yl)acetic acid], 5.94. On to `COc1cccc(-c2ccc(Oc3ccc(N4N=C(C(F)(F)F)CC4CC(=O)O)cc3)c(C)c2)c1` (single isomer, unassigned) [Example 9, Isomer 1, 2-(1-(4-(3′-methoxy-3-methylbiphenyl-4-yloxy)phenyl)-3-(trifluoromethyl)-4,5-dihydro-1H-pyrazol-5-yl)acetic acid], for which the pEC50 was 6.72. The result for `COc1cccc(-c2ccc(Oc3ccc(N4N=C(C(F)(F)F)CC4CC(=O)O)cc3)c(C)c2)c1` (single isomer, unassigned) [Example 9, Isomer 2, 2-(1-(4-(3′-methoxy-3-methylbiphenyl-4-yloxy)phenyl)-3-(trifluoromethyl)-4,5-dihydro-1H-pyrazol-5-yl)acetic acid] reads 6.54.

For orientation: pEC50 means the EC50 on a negative log10 scale, so that one unit is a factor of ten.
